For data set [1], the system named is Venturia inaequalis. The data set is described as follows: Example O: Venturia test (apples)/preventive. The note with it: 100 ppm of active ingredient, preventive, evaluated 10 days after inoculation. Type of data set: in vivo. On the procedure: (§1) Solvent: 24.5 parts by weight of acetone • 24.5 parts by weight of dimethylacetamide Emulsifier: 1 part by weight of alkylaryl polyglycol ether To produce a suitable preparation of active compound, 1 part by weight of active compound is mixed with the stated amounts of solvent and emulsifier, and the concentrate is diluted with water to the desired concentration. To test for preventive activity, young plants are sprayed with the preparation of active compound at the stated rate of application.

In data set [2] the test system is Uromyces appendiculatus. The data set is described as follows: Example F: in vivo preventive test on Uromyces appendiculatus (bean rust). As to conditions: bean plants, preventive spray, evaluated 11 days after inoculation. How it is done: The young plants of bean are treated by spraying the active ingredient prepared as described above. Control plants are treated only with an aqueous solution of acetone/Dimethyl sulfoxide/Tween®. After 24 hours, the plants are contaminated by spraying the leaves with an aqueous suspension of Uromyces appendiculatus spores.

In data set [3] the test system is Phakopsora pachyrhizi. The data set is described as follows: Example L: Phakopsora test (soybeans)/preventive. Type of data set: in vivo. As to conditions: 100 ppm of active ingredient, preventive, evaluated 7 days after inoculation.
Data set [4] has as its system Fusarium graminearum. Type of data set: in vivo. The note with it: 500 ppm of active ingredient; barley, preventive; evaluated 5 days after inoculation.
Data set [5] concerns Puccinia recondita. The data set is described as follows: Example B: in vivo preventive test on Puccinia recondita (brown rust on wheat). The note with it: wheat plants, preventive spray, evaluated 11 days after inoculation. On the procedure: The young plants of wheat are treated by spraying the active ingredient prepared as described above. Control plants are treated only with an aqueous solution of acetone/Dimethyl sulfoxide/Tween®. After 24 hours, the plants are contaminated by spraying the leaves with an aqueous suspension of Puccinia recondita spores.

For data set [6], the system named is Blumeria graminis f. sp. hordei. Kind of data set: Example G: Blumeria test (barley)/preventive. Type of data set: in vivo. The note with it: 500 ppm of active ingredient, preventive, evaluated 7 days after inoculation. An outline of the steps: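 Active compound formulated in N,N-dimethylacetamide with alkylaryl polyglycol ether emulsifier, diluted in water, and sprayed onto young barley plants at the stated application rate. Once the coating dried, plants were dusted with Blumeria graminis f. sp. hordei spores as a preventive test.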

The subject of data set [7] is Septoria tritici. Kind of data set: Example D: in vivo preventive test on Septoria tritici (leaf spot on wheat). As to conditions: wheat plants, preventive spray, evaluated 24 days after inoculation. On the procedure: The young plants of wheat are treated by spraying the active ingredient prepared as described above. Control plants are treated only with an aqueous solution of acetone/Dimethyl sulfoxide/Tween®. After 24 hours, the plants are contaminated by spraying the leaves with an aqueous suspension of Septoria tritici spores.

For data set [8], the system named is Podosphaera leucotricha. The data set is described as follows: Example M: Podosphaera test (apples)/preventive. Type of data set: in vivo. The note with it: 100 ppm of active ingredient, preventive, evaluated 10 days after inoculation. How it is done: as §1, with “application. After the spray coating has dried on, the plants are inoculated with an aqueous spore suspension of the causal agent of apple mildew (Podosphaera leucotricha).” for “application.”

Data set [9] has as its system Fusarium nivale (var. majus). The data set is described as follows: Example J: Fusarium nivale (var. majus)-test (wheat)/preventive. Type of data set: in vivo. As to conditions: 500 ppm of active ingredient, preventive, evaluated 5 days after inoculation. In short, it runs like this: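 Young wheat plants sprayed preventively with active compound (DMA/emulsifier concentrate diluted in water) at the stated rate, then sandblast-wounded and inoculated with conidia. Held in greenhouse at ~10 °C, ~100% RH. Efficacy scored 5 days post-inoculation: 0% = untreated control, 100% = no disease.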

Data set [10] deals with Sphaerotheca fuliginea. Kind of data set: Example E: in vivo preventive test on Sphaerotheca fuliginea (powdery mildew on cucurbits). The note with it: gherkin plants, preventive spray, evaluated 15 days after inoculation. How it is done:
The young plants of gherkin are treated by spraying the active ingredient prepared as described above. Control plants are treated only with an aqueous solution of acetone/Dimethyl sulfoxide/Tween®. After 24 hours, the plants are contaminated by spraying the leaves with an aqueous suspension of Sphaerotheca fuliginea spores.

Data set [11] has as its system Pyrenophora teres. Kind of data set: Example C: in vivo preventive test on Pyrenophora teres (net blotch on barley). As to conditions: barley plants, preventive spray, evaluated 14 days after inoculation. On the procedure: The young plants of barley are treated by spraying the active ingredient prepared as described above. Control plants are treated only with an aqueous solution of acetone/Dimethyl sulfoxide/Tween®. After 24 hours, the plants are contaminated by spraying the leaves with an aqueous suspension of Pyrenophora teres spores.

Data set [12] has as its system Fusarium culmorum. The data set is described as follows: Example H: Fusarium culmorum-test (wheat)/curative. Type of data set: in vivo. As to conditions: 500 ppm of active ingredient, curative, evaluated 5 days after inoculation. How it is done:
Solvent: 49 parts by weight of N,N-dimethylacetamide
Emulsifier: 1 part by weight of alkylaryl polyglycol ether
To produce a suitable preparation of active compound, 1 part by weight of active compound or active compound combination is mixed with the stated amounts of solvent and emulsifier, and the concentrate is diluted with water to the desired concentration.
To test for curative activity, young plants are slightly injured by using a sandblast and afterwards they are sprayed with a conidia suspension of Fusarium culmorum and placed for 24 hours in a greenhouse under a translucent incubation cabinet at a temperature of approximately 22° C. and a relative atmospheric humidity of approximately 100% and are subsequently sprayed with the preparation of active compound at the stated rate of application.
After the spray coating has been dried, the plants remain in the greenhouse under translucent incubation cloches at a temperature of approximately 22° C. and a relative atmospheric humidity of approximately 100%.
The test is evaluated 5 days after the inoculation. 0% means an efficacy which corresponds to that of the untreated control, while an efficacy of 100% means that no disease is observed.

In data set [13] the test system is Botrytis cinerea. Kind of data set: Example A: in vivo preventive test on Botrytis cinerea (grey mould). The note with it: gherkin plants, preventive spray, evaluated 4 to 5 days after inoculation. How it is done: The young plants of gherkin are treated by spraying the active ingredient prepared as described above. Control plants are treated only with an aqueous solution of acetone/Dimethyl sulfoxide/Tween®. After 24 hours, the plants are contaminated by spraying the leaves with an aqueous suspension of Botrytis cinerea spores.

In data set [14] the test system is Leptosphaeria nodorum. Kind of data set: Example K: Leptosphaeria nodorum test (wheat)/preventive. The note with it: 500 ppm of active ingredient, preventive, evaluated 8 days after inoculation. Type of data set: in vivo. An outline of the steps: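 Young wheat plants sprayed preventively with compound in N,N-dimethylacetamide/alkylaryl polyglycol ether emulsifier diluted with water at the stated application rate. Once the coating dried, plants were inoculated with a Leptosphaeria nodorum spore suspension.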

The test system of data set [15] is Pyricularia oryzae. Type of data set: in vivo. The note with it: 500 ppm of active ingredient; rice, preventive; evaluated 8 days after inoculation.
Where [16] appears, read: method [a]: LC-MS at pH 2.7, 0.1% formic acid in water / acetonitrile gradient.

Where two headings read alike, the source gives them in different places. Marks after values point to notes of the source that are not given here.

Take `OC(Cc1ccncc1F)(Cn1cncn1)C1(Cl)CC1` (stereo not drawn) [Example I-18]: the Eff. % in data set [1] turned out to be 100%; in [2] (100 ppm of active ingredient), 97%; in data set [3], 95%; in data set [4], 100%; in [5] (100 ppm of active ingredient), 94%; in [6], 100%. For the same compound, the Eff. % in data set [7] (100 ppm of active ingredient) turned out to be 98%; in data set [8], 97%; in data set [9] it was 100%; in data set [10] (100 ppm of active ingredient), 100%; in data set [11] (100 ppm of active ingredient), 83%; in data set [12], 100%. Further, the Eff. % in [13] (100 ppm of active ingredient) and in data set [14] was 100% each time. Moreover, the LogP (pH 2.7) is 1.29^[a].
For `CC1(C(O)(Cc2cccnc2Cl)Cn2cncn2)CC1` (stereo not drawn) [Example I-8], the Eff. % worked out at 100% in [1]; 100% in data set [2] (100 ppm of active ingredient); 95% in data set [3]; 100% in data set [4]; 94% in data set [5] (100 ppm of active ingredient); 100% in [15]. Further, the Eff. % was 100% in [6]; 94% in data set [7] (100 ppm of active ingredient); 100% in data set [9]; 100% in data set [10] (100 ppm of active ingredient); 100% in data set [12]; 87% in data set [13] (100 ppm of active ingredient). Further, the Eff. % in [14] amounted to 92%. The LogP under setting [16] is 1.73^[a].
For the compound `OC(Cc1ccc(Cl)nc1Cl)(Cn1cncn1)C1(Cl)CC1` (stereo not drawn) [Example I-53], the Eff. % turned out to be 97% in [1]; 98% in data set [2] (500 ppm of active ingredient); 93% in data set [3]; 100% in data set [4]; 94% in [5] (500 ppm of active ingredient); 80% in [15]. The Eff. % in data set [6] was determined as 100%; in data set [7] (500 ppm of active ingredient), 100%; in data set [9], 100%; in data set [10] (500 ppm of active ingredient) it was 100%; in data set [11] (500 ppm of active ingredient), 86%; in data set [12], 90%. In addition, the Eff. % in data set [13] (500 ppm of active ingredient) and in [14] was 100% each time. For the same compound, the LogP (pH 2.7) is 2.55^[a].
With `OC(Cc1cccnc1F)(Cn1cncn1)C1(Cl)CC1` (stereo not drawn) [Example I-51], the Eff. % came to 94% in [1]; 86% in data set [2] (500 ppm of active ingredient); 100% in data set [3]; 100% in data set [4]; 98% in [5] (500 ppm of active ingredient); 80% in data set [15]. Further, the Eff. % in [6], in data set [7] (500 ppm of active ingredient), in data set [9], in data set [10] (500 ppm of active ingredient), in data set [11] (500 ppm of active ingredient) and in data set [12] was 100% throughout. For the same compound, the Eff. % in [13] (500 ppm of active ingredient) and in data set [14] was 100% throughout. In addition, for the setting “pH 2.7”, the LogP is 1.64^[a].
Take `OC(Cc1cc(F)ncc1Cl)(Cn1cncn1)C1(F)CC1` (racemic) [Example I-65]: the Eff. % in [1] is 100%; in [2] (500 ppm of active ingredient) it was 100%; in [3], 100%; in [4], 100%; in [5] (500 ppm of active ingredient), 98%; in [15], 86%. Also, the Eff. % in data set [6], in [7] (500 ppm of active ingredient), in data set [9], in [10] (500 ppm of active ingredient), in data set [11] (500 ppm of active ingredient) and in data set [12] was 100% throughout. Also, the Eff. % in [13] (500 ppm of active ingredient) and in data set [14] was 100% throughout. Moreover, the LogP (pH 2.7) is 1.77^[a].
Turning to `OC(Cc1ccncc1Cl)(Cn1cncn1)C1(F)CC1` (stereo not drawn) [Example I-7], the Eff. % is 98% in data set [1]; 100% in [2] (100 ppm of active ingredient); 94% in data set [3]; 100% in [4]; 94% in [5] (100 ppm of active ingredient); 100% in data set [15]. For the same compound, the Eff. % came to 100% in data set [6]; 98% in data set [7] (100 ppm of active ingredient); 100% in data set [9]; 100% in [10] (100 ppm of active ingredient); 92% in data set [11] (100 ppm of active ingredient); 100% in data set [12]. The Eff. % in data set [13] (100 ppm of active ingredient) and in [14] was 100% each time. Besides, the LogP under setting [16] is 1.29^[a].
For `OC(Cc1ccnc(Cl)c1F)(Cn1cncn1)C1(Cl)CC1` (stereo not drawn) [Example I-60], the Eff. % worked out at 100% in [1]; 100% in data set [2] (500 ppm of active ingredient); 100% in [3]; 100% in data set [4]; 98% in data set [5] (500 ppm of active ingredient); 100% in [6]. For the same compound, the Eff. % is given as 97% in data set [7] (500 ppm of active ingredient); 100% in data set [9]; 100% in data set [10] (500 ppm of active ingredient); 100% in [11] (500 ppm of active ingredient); 83% in data set [12]; 100% in data set [13] (500 ppm of active ingredient). The Eff. % in data set [14] was 100%. For the same compound, the LogP (pH 2.7) is 2.02^[a].
For the compound `CC(CF)(CF)C(O)(Cc1ccncc1Cl)Cn1cncn1` (stereo not drawn) [Example I-6], the Eff. % in data set [1] stood at 100%; in data set [2] (100 ppm of active ingredient), 100%; in data set [3] it was 95%; in data set [4], 100%; in data set [5] (100 ppm of active ingredient) it was 81%; in data set [15], 83%. For the same compound, the Eff. % turned out to be 100% in [6]; 100% in [7] (100 ppm of active ingredient); 100% in [9]; 100% in data set [10] (100 ppm of active ingredient); 100% in data set [12]; 76% in data set [13] (100 ppm of active ingredient). In addition, in data set [14], the Eff. % stood at 100%. For the same compound, the LogP (pH 2.7) was 1.54^[a].

Source of the values: US9822099B2, “Triazole derivatives” (priority 2013, dated 2017).
